Test results as given in patent publication US20240166652A1, “MODULATORS OF THE INTEGRATED STRESS PATHWAY” (Calico Life Sciences LLC, priority 2017, published 2024).

Each compound was assayed on ATF4 luciferase reporter in HEK293T cells (assay: ATF4-Luc assay (ATF4 luciferase reporter, tunicamycin-treated HEK293T cells)). Details: Homo sapiens, HEK-293T; HEK293T cells carrying the ATF4 luciferase reporter, 1 μg/mL tunicamycin, 7 hours.
Format: cell-based, human
For `O=C(COc1ccc(OC(F)(F)F)c(F)c1)NC12CCC(NC(=O)COc3ccc(Cl)cc3)(CC1)[C@@H](O)C2` [Compound 759, 2-(4-chlorophenoxy)-N-[(2S)-4-{2-[3-fluoro-4-(trifluoromethoxy)phenoxy]acetamido}-2-hydroxybicyclo[2.2.2]octan-1-yl]acetamide], the EC50 was < 10 nM.
With `O=C(COc1ccc(OC(F)(F)F)c(F)c1)NC12CCC(NC(=O)COc3ccc4c(c3)OC(F)(F)O4)(CC1)[C@@H](O)C2` [Compound 760, 2-[(2,2-difluoro-2H-1,3-benzodioxol-5-yl)oxy]-N-[(2S)-4-{2-[3-fluoro-4-(trifluoromethoxy)phenoxy]acetamido}-2-hydroxybicyclo[2.2.2]octan-1-yl]acetamide] the EC50 was < 10 nM.
With `O=C(COc1ccc(OC(F)(F)F)c(F)c1)NC12CCC(NC(=O)COc3ccc(Cl)c(F)c3)(CC1)[C@@H](O)C2` [Compound 761, 2-(4-chloro-3-fluorophenoxy)-N-[(2S)-4-{2-[3-fluoro-4-(trifluoromethoxy)phenoxy]acetamido}-2-hydroxybicyclo[2.2.2]octan-1-yl]acetamide] the EC50 was < 10 nM.
With `O=C(COc1ccc(OC(F)(F)F)c(F)c1)NC12CCC(NC(=O)COc3ccc(F)cc3)(CC1)[C@@H](O)C2` [Compound 762, 2-(4-fluorophenoxy)-N-[(2S)-4-{2-[3-fluoro-4-(trifluoromethoxy)phenoxy]acetamido}-2-hydroxybicyclo[2.2.2]octan-1-yl]acetamide] the EC50 was < 10 nM.
With `O=C(COc1ccc(OC(F)(F)F)c(F)c1)NC12CCC(NC(=O)COc3ccc(F)c(F)c3)(CC1)[C@@H](O)C2` [Compound 763, 2-(3,4-difluorophenoxy)-N-[(2S)-4-{2-[3-fluoro-4-(trifluoromethoxy)phenoxy]acetamido}-2-hydroxybicyclo[2.2.2]octan-1-yl]acetamide] the EC50 was < 10 nM.
`O=C(COc1ccc(OC(F)(F)F)c(F)c1)NC12CCC(NC(=O)COc3ccc(OC(F)(F)F)cc3)(CC1)[C@@H](O)C2` [Compound 764, 2-[3-fluoro-4-(trifluoromethoxy)phenoxy]-N-[(3S)-3-hydroxy-4-{2-[4-(trifluoromethoxy)phenoxy]acetamido}bicyclo[2.2.2]octan-1-yl]acetamide] was tested, and the EC50 was 10 to 50 nM.
With `CS(=O)(=O)c1ccc(OCC(=O)NC23CCC(NC(=O)COc4ccc(OC(F)(F)F)cc4)(CC2)[C@@H](O)C3)cc1F` [Compound 765, 2-[3-fluoro-4-(methanesulfonyl)phenoxy]-N-[(3S)-3-hydroxy-4-{2-[4-(trifluoromethoxy)phenoxy]acetamido}bicyclo[2.2.2]octan-1-yl]acetamide] the EC50 was 250 to 500 nM.
`CS(=O)(=O)c1ccc(OCC(=O)NC23CCC(NC(=O)COc4ccc5c(c4)OC(F)(F)O5)(CC2)[C@@H](O)C3)cc1F` [Compound 766, 2-[(2,2-difluoro-2H-1,3-benzodioxol-5-yl)oxy]-N-[(2S)-4-{2-[3-fluoro-4-(methanesulfonyl)phenoxy]acetamido}-2-hydroxybicyclo[2.2.2]octan-1-yl]acetamide] showed an EC50 of 50 to 250 nM.
Work on `CS(=O)(=O)c1ccc(OCC(=O)NC23CCC(NC(=O)COc4ccc(F)cc4)(CC2)[C@@H](O)C3)cc1F` [Compound 767, 2-[3-fluoro-4-(methanesulfonyl)phenoxy]-N-{(3S)-4-[2-(4-fluorophenoxy)acetamido]-3-hydroxybicyclo[2.2.2]octan-1-yl}acetamide] yielded an EC50 of 250 to 500 nM.
With `CS(=O)(=O)c1ccc(OCC(=O)NC23CCC(NC(=O)COc4ccc(F)c(F)c4)(CC2)[C@@H](O)C3)cc1F` [Compound 768, 2-(3,4-difluorophenoxy)-N-[(2S)-4-{2-[3-fluoro-4-(methanesulfonyl)phenoxy]acetamido}-2-hydroxybicyclo[2.2.2]octan-1-yl]acetamide] the EC50 was 50 to 250 nM.
Compound `CS(=O)(=O)c1ccc(OCC(=O)NC23CCC(NC(=O)COc4ccc(Cl)c(F)c4)(CC2)[C@@H](O)C3)cc1F` [Compound 769, 2-(4-chloro-3-fluorophenoxy)-N-[(2S)-4-{2-[3-fluoro-4-(methanesulfonyl)phenoxy]acetamido}-2-hydroxybicyclo[2.2.2]octan-1-yl]acetamide] has an EC50 of 10 to 50 nM.
For `COc1cc(OCC(=O)NC23CCC(NC(=O)COc4ccc(F)c(F)c4)(CC2)C[C@@H]3O)ccc1F` [Compound 770, 2-(3,4-difluorophenoxy)-N-{(3S)-4-[2-(4-fluoro-3-methoxyphenoxy)acetamido]-3-hydroxybicyclo[2.2.2]octan-1-yl}acetamide], the EC50 was < 10 nM.
`COc1cc(OCC(=O)NC23CCC(NC(=O)COc4ccc(Cl)c(F)c4)(CC2)C[C@@H]3O)ccc1F` [Compound 771, 2-(4-chloro-3-fluorophenoxy)-N-{(3S)-4-[2-(4-fluoro-3-methoxyphenoxy)acetamido]-3-hydroxybicyclo[2.2.2]octan-1-yl}acetamide] was tested, and the EC50 was < 10 nM.
With `O=C(COc1ccc(Cl)c(F)c1)NC12CCC(NC(=O)COc3ccc(F)c(OC(F)(F)F)c3)(CC1)[C@@H](O)C2` [Compound 772, 2-(4-chloro-3-fluorophenoxy)-N-[(3S)-4-{2-[4-fluoro-3-(trifluoromethoxy)phenoxy]acetamido}-3-hydroxybicyclo[2.2.2]octan-1-yl]acetamide] the EC50 was < 10 nM.
For `O=C(COc1ccc(C(F)(F)F)c(F)c1)NC12CCC(NC(=O)COc3ccc4c(c3)OC(F)(F)O4)(CC1)[C@@H](O)C2` [Compound 773, 2-[(2,2-difluoro-2H-1,3-benzodioxol-5-yl)oxy]-N-[(2S)-4-{2-[3-fluoro-4-(trifluoromethyl)phenoxy]acetamido}-2-hydroxybicyclo[2.2.2]octan-1-yl]acetamide], the EC50 was < 10 nM.
`O=C(COc1ccc(F)c(C(F)F)c1)NC12CCC(NC(=O)COc3ccc(Cl)cc3)(CC1)[C@@H](O)C2` [Compound 774, 2-(4-chlorophenoxy)-N-[(2S)-4-{2-[3-(difluoromethyl)-4-fluorophenoxy]acetamido}-2-hydroxybicyclo[2.2.2]octan-1-yl]acetamide] was tested, and the EC50 was < 10 nM.
With `O=C(COc1ccc(F)c(C(F)F)c1)NC12CCC(NC(=O)COc3ccc(F)c(F)c3)(CC1)[C@@H](O)C2` [Compound 775, 2-[3-(difluoromethyl)-4-fluorophenoxy]-N-{(3S)-4-[2-(3,4-difluorophenoxy)acetamido]-3-hydroxybicyclo[2.2.2]octan-1-yl}acetamide] the EC50 was < 10 nM.
With `COCc1ccccc1OCC(=O)NC12CCC(NC(=O)COc3ccc(Cl)c(F)c3)(CC1)[C@@H](O)C2` [Compound 776, 2-(4-chloro-3-fluorophenoxy)-N-[(2S)-2-hydroxy-4-{2-[2-(methoxymethyl)phenoxy]acetamido}bicyclo[2.2.2]octan-1-yl]acetamide] the EC50 was > 2000 nM.
In the case of `COCc1cccc(OCC(=O)NC23CCC(NC(=O)COc4ccc(Cl)c(F)c4)(CC2)[C@@H](O)C3)c1` [Compound 777, 2-(4-chloro-3-fluorophenoxy)-N-[(2S)-2-hydroxy-4-{2-[3-(methoxymethyl)phenoxy]acetamido}bicyclo[2.2.2]octan-1-yl]acetamide], the EC50 is reported as 10 to 50 nM.
For `CCc1ccc(OCC(=O)NC23CCC(NC(=O)COc4ccc(F)c(F)c4)(CC2)[C@@H](O)C3)cc1` [Compound 778, 2-(3,4-difluorophenoxy)-N-{(2S)-4-[2-(4-ethylphenoxy)acetamido]-2-hydroxybicyclo[2.2.2]octan-1-yl}acetamide], the EC50 was 10 to 50 nM.
In the case of `O=C(COc1ccc(Cl)c(F)c1)NC12CC(NC(=O)C(OCCO)c3ccc(F)cc3)(C1)C2` (centres unmarked) [Compound 779, N-{3-[2-(4-chloro-3-fluorophenoxy)acetamido]bicyclo[1.1.1]pentan-1-yl}-2-(4-fluorophenyl)-2-(2-hydroxyethoxy)acetamide], the EC50 is reported as > 2000 nM.
For `O=C(COc1ccc(OC(F)(F)F)cc1)NC12CCC(NC(=O)COc3ccc4c(c3)OC(F)(F)O4)(CC1)[C@@H](O)C2` [Compound 780, 2-[(2,2-difluoro-2H-1,3-benzodioxol-5-yl)oxy]-N-[(2S)-2-hydroxy-4-{2-[4-(trifluoromethoxy)phenoxy]acetamido}bicyclo[2.2.2]octan-1-yl]acetamide], the EC50 was < 10 nM.
For `O=C(COc1ccc(OC(F)(F)F)cc1)NC12CCC(NC(=O)COc3ccc(F)cc3)(CC1)[C@@H](O)C2` [Compound 781, 2-(4-fluorophenoxy)-N-[(2S)-2-hydroxy-4-{2-[4-(trifluoromethoxy)phenoxy]acetamido}bicyclo[2.2.2]octan-1-yl]acetamide], the EC50 was < 10 nM.
In the case of `CCc1ccc(OCC(=O)NC23CCC(NC(=O)COc4ccc(Cl)c(F)c4)(CC2)[C@@H](O)C3)cc1` [Compound 782, 2-(4-chloro-3-fluorophenoxy)-N-{(2S)-4-[2-(4-ethylphenoxy)acetamido]-2-hydroxybicyclo[2.2.2]octan-1-yl}acetamide], the EC50 is reported as < 10 nM.
With `O=C(COc1ccc(OC(F)(F)F)cc1)NC12CCC(NC(=O)COc3ccc(Cl)cc3)(CC1)[C@@H](O)C2` [Compound 783, 2-(4-chlorophenoxy)-N-[(2S)-2-hydroxy-4-{2-[4-(trifluoromethoxy)phenoxy]acetamido}bicyclo[2.2.2]octan-1-yl]acetamide] the EC50 was < 10 nM.
`O=C(COc1ccc(OC(F)(F)F)cc1)NC12CCC(NC(=O)COc3ccc(F)c(F)c3)(CC1)[C@@H](O)C2` [Compound 784, 2-(3,4-difluorophenoxy)-N-[(2S)-2-hydroxy-4-{2-[4-(trifluoromethoxy)phenoxy]acetamido}bicyclo[2.2.2]octan-1-yl]acetamide] was tested, and the EC50 was < 10 nM.
In the case of `O=C(COc1ccc(OC(F)(F)F)cc1)NC12CCC(NC(=O)COc3ccc(OC(F)(F)F)cc3)(CC1)[C@@H](O)C2` [Compound 785, N,N′-[(2S)-2-hydroxybicyclo[2.2.2]octane-1,4-diyl]bis{2-[4-(trifluoromethoxy)phenoxy]acetamide}], the EC50 is reported as 50 to 250 nM.
For `O=C(COc1ccc2c(c1)OC(F)(F)O2)NC12CCC(NC(=O)COc3ccc(OC(F)(F)F)cc3)(CC1)[C@@H](O)C2` [Compound 786, 2-[(2,2-difluoro-2H-1,3-benzodioxol-5-yl)oxy]-N-[(3S)-3-hydroxy-4-{2-[4-(trifluoromethoxy)phenoxy]acetamido}bicyclo[2.2.2]octan-1-yl]acetamide], the EC50 was < 10 nM.
`Cc1ccc(OCC(=O)NC23CCC(NC(=O)COc4ccc(Cl)cc4)(CC2)[C@@H](O)C3)cc1` [Compound 787, 2-(4-chlorophenoxy)-N-{(2S)-2-hydroxy-4-[2-(4-methylphenoxy)acetamido]bicyclo[2.2.2]octan-1-yl}acetamide] was tested, and the EC50 was < 10 nM.
